{"source": "paper PMC1810525", "about": "“Antagonism of the prostaglandin D2 receptor CRTH2 attenuates asthma pathology in mouse eosinophilic airway inflammation” (Respiratory Research, 2007)", "key": {"DP": {"system": "DP", "conditions": "cited from earlier work"}, "CysLT1": {"molecular_target": "T1, CysLT1 (Homo sapiens, UniProt Q9Y271)", "T1 sequence (Q9Y271 1-337)": "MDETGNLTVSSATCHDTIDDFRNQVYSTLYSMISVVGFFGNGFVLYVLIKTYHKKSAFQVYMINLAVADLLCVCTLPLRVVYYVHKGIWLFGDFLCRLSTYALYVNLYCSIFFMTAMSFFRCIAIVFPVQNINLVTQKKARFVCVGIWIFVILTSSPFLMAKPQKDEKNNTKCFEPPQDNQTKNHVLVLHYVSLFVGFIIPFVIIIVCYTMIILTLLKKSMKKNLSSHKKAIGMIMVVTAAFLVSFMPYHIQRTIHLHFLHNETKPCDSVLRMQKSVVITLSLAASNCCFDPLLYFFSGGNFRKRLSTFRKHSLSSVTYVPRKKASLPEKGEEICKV", "experiment": "Profiling panel, radioligand binding CysLT1", "conditions": "10 μM", "description": "(§1) All assays were performed using recombinant human receptors and enzymes, and included the appropriate controls for assay validation. Enzymatic and binding assays, except for muscarinic binding, were performed by CEREP in vitro pharmacology profiling services. […] For stimulation of C3a, C5a, and ChemR23 receptors in InsP assays the following agonists were used: human recombinant C3a (C3a receptor), human recombinant C5a (C5a receptor), and the nonapeptide Chemerin (ChemR23)."}, "iNOS": {"molecular_target": "iNOS (Homo sapiens, UniProt P35228)", "experiment": "Profiling panel, enzymatic assay iNOS", "format": "biochemical", "conditions": "10 μM", "description": "as §1"}, "AT1": {"molecular_target": "T2, AT1 (Homo sapiens, UniProt P30556)", "T2 sequence (P30556 1-359)": "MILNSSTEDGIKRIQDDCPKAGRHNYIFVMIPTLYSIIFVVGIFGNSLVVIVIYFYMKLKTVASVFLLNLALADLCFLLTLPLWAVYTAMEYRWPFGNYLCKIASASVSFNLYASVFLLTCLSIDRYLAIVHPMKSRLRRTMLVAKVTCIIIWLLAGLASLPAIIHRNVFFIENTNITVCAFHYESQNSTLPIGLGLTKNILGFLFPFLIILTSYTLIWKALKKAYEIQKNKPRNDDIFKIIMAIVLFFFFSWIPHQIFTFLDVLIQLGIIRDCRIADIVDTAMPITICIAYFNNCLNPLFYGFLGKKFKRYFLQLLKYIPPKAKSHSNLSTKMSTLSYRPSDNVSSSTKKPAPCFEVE", "experiment": "Profiling panel, radioligand binding AT1", "conditions": "10 μM", "description": "as §1"}, "COX1": {"molecular_target": "COX1 (Homo sapiens, UniProt P23219)", "sequence (P23219 24-599)": "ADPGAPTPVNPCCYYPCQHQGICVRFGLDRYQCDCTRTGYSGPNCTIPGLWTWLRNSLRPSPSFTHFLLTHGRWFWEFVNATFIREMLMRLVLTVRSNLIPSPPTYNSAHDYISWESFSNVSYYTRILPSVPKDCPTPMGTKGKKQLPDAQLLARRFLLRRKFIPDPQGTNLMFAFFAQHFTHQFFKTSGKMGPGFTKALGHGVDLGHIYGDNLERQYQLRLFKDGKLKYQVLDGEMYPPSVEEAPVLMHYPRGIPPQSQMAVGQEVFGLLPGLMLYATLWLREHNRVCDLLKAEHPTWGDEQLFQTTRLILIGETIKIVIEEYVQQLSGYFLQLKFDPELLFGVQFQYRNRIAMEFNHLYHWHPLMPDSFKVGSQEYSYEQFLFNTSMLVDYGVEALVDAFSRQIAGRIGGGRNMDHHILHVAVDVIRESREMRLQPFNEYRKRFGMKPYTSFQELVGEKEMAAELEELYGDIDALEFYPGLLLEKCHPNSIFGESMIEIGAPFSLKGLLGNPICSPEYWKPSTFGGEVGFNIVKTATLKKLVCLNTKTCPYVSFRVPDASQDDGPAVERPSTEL", "experiment": "Profiling panel, enzymatic assay COX1", "format": "biochemical", "conditions": "10 μM", "description": "as §1"}, "C5a": {"molecular_target": "T3, C5a (Homo sapiens, UniProt P21730)", "T3 sequence (P21730 1-350)": "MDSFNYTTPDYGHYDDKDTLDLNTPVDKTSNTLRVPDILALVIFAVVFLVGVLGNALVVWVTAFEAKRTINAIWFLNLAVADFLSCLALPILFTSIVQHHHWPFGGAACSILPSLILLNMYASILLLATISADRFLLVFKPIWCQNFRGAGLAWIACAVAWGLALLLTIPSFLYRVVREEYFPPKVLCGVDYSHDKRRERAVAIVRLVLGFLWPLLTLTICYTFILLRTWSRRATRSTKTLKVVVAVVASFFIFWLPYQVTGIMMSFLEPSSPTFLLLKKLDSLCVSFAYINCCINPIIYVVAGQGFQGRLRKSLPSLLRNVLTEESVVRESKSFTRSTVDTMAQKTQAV", "experiment": "Profiling panel, C5a receptor", "conditions": "10 μM, assay type B (binding) per table", "description": "as §1"}, "C3a": {"molecular_target": "T4, C3a (Homo sapiens, UniProt Q16581)", "T4 sequence (Q16581 1-482)": "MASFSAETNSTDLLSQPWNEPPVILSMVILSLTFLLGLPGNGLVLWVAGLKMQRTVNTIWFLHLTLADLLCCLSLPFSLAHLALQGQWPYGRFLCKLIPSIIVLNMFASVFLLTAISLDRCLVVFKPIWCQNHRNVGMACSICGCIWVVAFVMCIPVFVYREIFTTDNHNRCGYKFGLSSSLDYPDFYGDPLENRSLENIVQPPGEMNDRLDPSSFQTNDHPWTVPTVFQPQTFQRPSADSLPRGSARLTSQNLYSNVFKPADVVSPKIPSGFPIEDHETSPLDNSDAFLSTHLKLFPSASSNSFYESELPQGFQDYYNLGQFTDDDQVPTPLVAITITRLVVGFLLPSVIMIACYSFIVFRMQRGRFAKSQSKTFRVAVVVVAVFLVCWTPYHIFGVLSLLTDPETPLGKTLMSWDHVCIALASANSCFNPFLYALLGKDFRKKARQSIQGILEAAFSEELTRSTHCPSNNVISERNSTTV", "experiment": "Profiling panel, functional InsP C3a receptor", "format": "cell-based", "conditions": "10 μM"}, "COX2": {"molecular_target": "T5, COX2 (Homo sapiens, UniProt P35354)", "T5 sequence (P35354 18-604)": "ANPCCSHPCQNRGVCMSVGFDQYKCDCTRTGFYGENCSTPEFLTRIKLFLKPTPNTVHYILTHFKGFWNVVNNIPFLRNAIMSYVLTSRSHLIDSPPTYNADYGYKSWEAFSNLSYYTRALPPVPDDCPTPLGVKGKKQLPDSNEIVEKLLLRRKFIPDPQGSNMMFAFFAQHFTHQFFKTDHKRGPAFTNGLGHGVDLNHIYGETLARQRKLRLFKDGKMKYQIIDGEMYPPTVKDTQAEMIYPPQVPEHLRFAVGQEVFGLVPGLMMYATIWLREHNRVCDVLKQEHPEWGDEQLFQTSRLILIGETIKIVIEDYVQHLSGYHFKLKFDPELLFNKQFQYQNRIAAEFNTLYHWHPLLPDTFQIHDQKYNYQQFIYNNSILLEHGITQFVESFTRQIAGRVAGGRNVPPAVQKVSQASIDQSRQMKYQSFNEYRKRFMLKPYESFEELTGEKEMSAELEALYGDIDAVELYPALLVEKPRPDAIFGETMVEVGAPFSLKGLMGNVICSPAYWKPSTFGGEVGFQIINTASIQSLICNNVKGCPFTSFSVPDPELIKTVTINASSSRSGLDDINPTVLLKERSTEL", "experiment": "Profiling panel, enzymatic assay COX2", "format": "biochemical", "conditions": "10 μM", "description": "as §1"}}}
{"smiles": "CN(C1CCc2c(c3ccccc3n2CC(=O)O)C1)S(=O)(=O)c1ccc(F)cc1", "note": "(centres unmarked) [TM30089]", "values": [{"measurement": "preference for CRTH2 over DP", "setting": "DP", "result": "> 1000", "unit": "fold"}, {"measurement": "% of control CysLT1", "setting": "CysLT1", "result": "116.9 ± 10.5", "unit": "%"}, {"measurement": "% of control iNOS", "setting": "iNOS", "result": "102.3 ± 3.6", "unit": "%"}, {"measurement": "% of control AT1", "setting": "AT1", "result": "90.1 ± 2.8", "unit": "%"}, {"measurement": "% of control COX1", "setting": "COX1", "result": "109.6 ± 3.6", "unit": "%"}, {"measurement": "% of control C5a", "setting": "C5a", "result": "108.7 ± 6.3", "unit": "%"}, {"measurement": "% of control C3a", "setting": "C3a", "result": "88.7 ± 5.9", "unit": "%"}, {"measurement": "% of control COX2", "setting": "COX2", "result": "123.8 ± 13.4", "unit": "%"}]}
